Biological target: T1, SALL4 recruitment to CRBN (Homo sapiens, UniProt Q96SW2)
T1 construct: Full size proteins were fused for each of the target proteins tested, except in the case of IKZF1 where isoform 7 was used; expressed in transfected cells; host or cells: HEK293T
Assay: Recruitment Assay (MAPPIT-like): SALL4 recruitment to CRBN
Type: cell-based
Conditions: HEK293T cells; pSEL-SALL4+pMG1-CRBN; luciferase 24 hours after treatment; read-out: EC50_SALL4
Description: (§1) In this experimental set-up, cells were transfected with a construct encoding a CRBN-fusion protein and another one encoding a substrate-fusion protein. Test compound activity was assessed with increasing concentrations of test compounds (dose-response studies) to monitor the ability to promote CRBN-ligand-induced protein interaction.
(§2) Full size proteins were fused for each of the target proteins tested, except in the case of IKZF1 where isoform 7 was used. For the study, the following were used: IKZF1 recruitment: pSEL-CRBN+pMG1-IKZF1(isoform 7); ASS1 recruitment: pSEL-CRBN+pMG1-ASS1. SALL4 recruitment: pSEL-SALL4+pMG1-CRBN. […] Luciferase activity was measured 24 hours after test compound treatment using the Luciferase Assay System kit (PROMEGA, Madison, Wis.) with an Ensight plate reader (PERKIN ELMER LIFE SCIENCES, Waltham, Mass.). Data points depicted fold induction of the average luciferase activity of triplicate samples from EPO+test compound treated cells versus EPO only treated cells. Error bars represent standard deviations. Curves were fit using 4-parameter nonlinear regression in […] PRISM software.

T1 sequence (Q96SW2 whole entry, the tested form may be a part, canonical isoform): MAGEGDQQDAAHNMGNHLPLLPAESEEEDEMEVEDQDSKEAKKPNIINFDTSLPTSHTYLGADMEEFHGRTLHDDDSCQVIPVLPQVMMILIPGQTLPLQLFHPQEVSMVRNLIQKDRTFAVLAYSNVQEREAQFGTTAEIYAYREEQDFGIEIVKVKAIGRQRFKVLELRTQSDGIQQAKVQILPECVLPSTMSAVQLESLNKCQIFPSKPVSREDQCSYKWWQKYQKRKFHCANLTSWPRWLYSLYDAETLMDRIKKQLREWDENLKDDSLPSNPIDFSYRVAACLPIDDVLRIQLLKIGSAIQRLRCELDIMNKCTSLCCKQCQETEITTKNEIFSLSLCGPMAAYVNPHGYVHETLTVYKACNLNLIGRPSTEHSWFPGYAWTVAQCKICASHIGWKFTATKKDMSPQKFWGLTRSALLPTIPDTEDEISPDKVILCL
T1 sequence (Q9UJQ4 whole entry partner, the tested form may be a part, canonical isoform): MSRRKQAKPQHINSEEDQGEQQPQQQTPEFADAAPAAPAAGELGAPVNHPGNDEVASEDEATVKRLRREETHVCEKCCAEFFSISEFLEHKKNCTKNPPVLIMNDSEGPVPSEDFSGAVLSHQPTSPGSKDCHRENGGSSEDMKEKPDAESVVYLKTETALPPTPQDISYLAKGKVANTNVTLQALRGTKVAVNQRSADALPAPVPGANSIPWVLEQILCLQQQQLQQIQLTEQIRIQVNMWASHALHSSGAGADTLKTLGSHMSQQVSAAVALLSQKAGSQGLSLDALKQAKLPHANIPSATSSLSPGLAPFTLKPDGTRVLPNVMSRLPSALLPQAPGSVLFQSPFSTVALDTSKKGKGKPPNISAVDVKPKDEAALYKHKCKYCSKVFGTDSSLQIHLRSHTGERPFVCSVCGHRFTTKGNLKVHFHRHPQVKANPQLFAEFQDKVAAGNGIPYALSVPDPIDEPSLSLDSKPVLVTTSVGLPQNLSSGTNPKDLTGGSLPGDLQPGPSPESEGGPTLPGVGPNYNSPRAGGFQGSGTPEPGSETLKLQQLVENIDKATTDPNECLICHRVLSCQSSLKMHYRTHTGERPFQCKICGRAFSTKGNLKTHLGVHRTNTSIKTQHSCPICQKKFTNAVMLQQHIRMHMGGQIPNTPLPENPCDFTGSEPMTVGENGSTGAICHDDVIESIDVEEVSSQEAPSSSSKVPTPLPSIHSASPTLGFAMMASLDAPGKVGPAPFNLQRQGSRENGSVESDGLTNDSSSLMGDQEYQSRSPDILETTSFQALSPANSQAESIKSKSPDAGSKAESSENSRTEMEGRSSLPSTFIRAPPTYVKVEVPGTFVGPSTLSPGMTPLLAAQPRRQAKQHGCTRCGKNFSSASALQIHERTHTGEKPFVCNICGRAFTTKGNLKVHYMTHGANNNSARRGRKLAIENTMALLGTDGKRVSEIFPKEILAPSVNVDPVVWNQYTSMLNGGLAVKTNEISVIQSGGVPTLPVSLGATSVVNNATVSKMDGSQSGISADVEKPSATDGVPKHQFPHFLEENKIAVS
T1 sequence (Q16531 whole entry partner, the tested form may be a part, canonical isoform): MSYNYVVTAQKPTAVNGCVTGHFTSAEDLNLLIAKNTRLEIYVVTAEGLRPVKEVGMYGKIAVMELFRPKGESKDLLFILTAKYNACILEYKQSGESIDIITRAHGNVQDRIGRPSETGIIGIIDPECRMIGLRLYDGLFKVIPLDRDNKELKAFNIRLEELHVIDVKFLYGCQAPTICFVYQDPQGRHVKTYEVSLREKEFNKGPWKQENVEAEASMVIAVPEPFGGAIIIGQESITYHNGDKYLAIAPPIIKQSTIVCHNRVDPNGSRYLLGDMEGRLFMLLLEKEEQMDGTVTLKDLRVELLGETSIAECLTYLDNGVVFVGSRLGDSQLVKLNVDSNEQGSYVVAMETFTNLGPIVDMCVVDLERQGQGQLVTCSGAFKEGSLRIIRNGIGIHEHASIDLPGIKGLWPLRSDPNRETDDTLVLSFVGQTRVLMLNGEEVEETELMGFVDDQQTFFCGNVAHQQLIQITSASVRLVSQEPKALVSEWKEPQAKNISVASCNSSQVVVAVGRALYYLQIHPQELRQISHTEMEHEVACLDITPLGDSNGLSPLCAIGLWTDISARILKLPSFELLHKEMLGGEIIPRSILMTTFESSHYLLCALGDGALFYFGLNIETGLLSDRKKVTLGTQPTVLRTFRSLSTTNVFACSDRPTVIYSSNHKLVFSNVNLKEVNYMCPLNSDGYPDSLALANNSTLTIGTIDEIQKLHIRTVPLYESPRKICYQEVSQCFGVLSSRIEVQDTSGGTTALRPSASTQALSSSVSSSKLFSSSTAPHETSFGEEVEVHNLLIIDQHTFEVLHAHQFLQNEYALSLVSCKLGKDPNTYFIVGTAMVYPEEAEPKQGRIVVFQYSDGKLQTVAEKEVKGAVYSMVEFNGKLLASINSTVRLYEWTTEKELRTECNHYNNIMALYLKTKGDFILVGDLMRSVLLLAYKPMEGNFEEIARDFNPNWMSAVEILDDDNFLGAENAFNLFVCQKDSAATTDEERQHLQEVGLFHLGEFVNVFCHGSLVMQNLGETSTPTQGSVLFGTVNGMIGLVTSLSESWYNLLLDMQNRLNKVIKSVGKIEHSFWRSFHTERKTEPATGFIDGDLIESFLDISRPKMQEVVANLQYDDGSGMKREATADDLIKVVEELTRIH

EC50 | SMILES
2700 nM | CC(C)OC1c2ccccc2C(=O)N1C1CCC(=O)NC1=O (stereo not drawn) [3-(1-isopropoxy-3-oxo-isoindolin-2-yl)piperidine-2,6-dione]
1250 nM | Cc1nc2ccc(C#N)c(N)c2c(=O)n1C1CCC(=O)NC1=O (stereo not drawn) [C10001, 5-amino-3-(2,6-dioxo-3-piperidyl)-2-methyl-4-oxo-quinazoline-6-carbonitrile]
1160 nM | O=C1CCC(N2C(=O)c3ccccc3C2NCc2ccccc2)C(=O)N1 (stereo not drawn) [C10239, 3-[1-(benzylamino)-3-oxo-isoindolin-2-yl]piperidine-2,6-dione]
1460 nM | CN(C)C1c2ccccc2C(=O)N1C1CCC(=O)NC1=O (stereo not drawn) [C10981, 3-[1-(dimethylamino)-3-oxo-isoindolin-2-yl]piperidine-2,6-dione]
2620 nM | O=C1CCC(N2Cc3ccc(NCC(=O)NC4CCOCC4)cc3C2=O)C(=O)N1 (stereo not drawn) [C12693, 2-[[2-(2,6-dioxo-3-piperidyl)-3-oxo-isoindolin-5-yl]amino]-N-tetrahydropyran-4-yl-acetamide]
3430 nM | O=C1CCC(N2Cc3ccc(NCC(=O)NC4CCOC4)cc3C2=O)C(=O)N1 (stereo not drawn) [C12694, 2-[[2-(2,6-dioxo-3-piperidyl)-3-oxo-isoindolin-5-yl]amino]-N-tetrahydrofuran-3-yl-acetamide]
772 nM | Cc1ccc2nnn(C3CCC(=O)NC3=O)c(=O)c2c1 (stereo not drawn) [C16463, 3-(6-methyl-4-oxo-1,2,3-benzotriazin-3-yl)piperidine-2,6-dione]

System: IKZF1, ASS1 and SALL4 recruitment to CRBN
Assay: Recruitment assessment: recruitment of any tested substrate from among IKZF1, ASS1 and SALL4
Type: cell-based
Conditions: any tested substrate at any tested compound concentration
Description: as §1, §2

SMILES | Recruitment Assessment
CC(C)OC1c2ccccc2C(=O)N1C1CCC(=O)NC1=O (stereo not drawn) [3-(1-isopropoxy-3-oxo-isoindolin-2-yl)piperidine-2,6-dione] | TRUE
Cc1nc2ccc(C#N)c(N)c2c(=O)n1C1CCC(=O)NC1=O (stereo not drawn) [C10001, 5-amino-3-(2,6-dioxo-3-piperidyl)-2-methyl-4-oxo-quinazoline-6-carbonitrile] | TRUE
O=C1CCC(N2C(=O)c3ccccc3C2NCc2ccccc2)C(=O)N1 (stereo not drawn) [C10239, 3-[1-(benzylamino)-3-oxo-isoindolin-2-yl]piperidine-2,6-dione] | TRUE
CN(C)C1c2ccccc2C(=O)N1C1CCC(=O)NC1=O (stereo not drawn) [C10981, 3-[1-(dimethylamino)-3-oxo-isoindolin-2-yl]piperidine-2,6-dione] | TRUE
O=C1CCC(N2Cc3ccc(NCC(=O)NC4CCOCC4)cc3C2=O)C(=O)N1 (stereo not drawn) [C12693, 2-[[2-(2,6-dioxo-3-piperidyl)-3-oxo-isoindolin-5-yl]amino]-N-tetrahydropyran-4-yl-acetamide] | TRUE
O=C1CCC(N2Cc3ccc(NCC(=O)NC4CCOC4)cc3C2=O)C(=O)N1 (stereo not drawn) [C12694, 2-[[2-(2,6-dioxo-3-piperidyl)-3-oxo-isoindolin-5-yl]amino]-N-tetrahydrofuran-3-yl-acetamide] | TRUE
Cc1ccc2nnn(C3CCC(=O)NC3=O)c(=O)c2c1 (stereo not drawn) [C16463, 3-(6-methyl-4-oxo-1,2,3-benzotriazin-3-yl)piperidine-2,6-dione] | TRUE
Cn1ncc2c(Nc3ccc4c(c3)C(=O)N(C3CCC(=O)NC3=O)C4)ncnc21 (stereo not drawn) [C80383, 3-[6-[(1-methylpyrazolo[3,4-d]pyrimidin-4-yl)amino]-1-oxo-isoindolin-2-yl]piperidine-2,6-dione] | FALSE
Cc1cc(Nc2ccc3c(c2)C(=O)N(C2CCC(=O)NC2=O)C3)ncn1 (stereo not drawn) [C80384, 3-[6-[(6-methylpyrimidin-4-yl)amino]-1-oxo-isoindolin-2-yl] piperidine-2,6-dione] | FALSE
O=C1CCC(N2Cc3ccc(Nc4[nH]cnc5nccc4-5)cc3C2=O)C(=O)N1 (stereo not drawn) [C80385, 3-[1-oxo-6-(3H-pyrrolo[2,3-d]pyrimidin-4-ylamino)isoindolin-2-yl] piperidine-2,6-dione] | FALSE
O=C1CCC(N2Cc3ccc(Nc4cnc5ccccc5n4)cc3C2=O)C(=O)N1 (stereo not drawn) [C80386, 3-[1-oxo-6-(quinoxalin-2-ylamino)isoindolin-2-yl]piperidine-2,6-dione] | FALSE
Cn1ccnc(Nc2ccc3c(c2)C(=O)N(C2CCC(=O)NC2=O)C3)c1=O (stereo not drawn) [C80387, 3-[6-[(4-methyl-3-oxo-pyrazin-2-yl)amino]-1-oxo-isoindolin-2-yl] piperidine-2,6-dione] | FALSE
N#Cc1ccc(Nc2ccc3c(c2)C(=O)N(C2CCC(=O)NC2=O)C3)nn1 (stereo not drawn) [C80389, 6-[[2-(2,6-dioxo-3-piperidyl)-3-oxo-isoindolin-5-yl]amino]pyridazine-3-carbonitrile] | FALSE
Cc1cc2[nH]cnc(Nc3ccc4c(c3)C(=O)N(C3CCC(=O)NC3=O)C4)c-2n1 (stereo not drawn) [C80390, 3-[6-[(6-methylpyrrolo[3,2-d]pyrimidin-4-yl)ammo]-1-oxo-isoindolin-2-yl]piperidine-2,6-dione] | TRUE
O=C1CCC(N2Cc3ccc(NC(=O)c4ccc5ccccc5n4)cc3C2=O)C(=O)N1 (stereo not drawn) [C80392, N-[2-(2,6-dioxo-3-piperidyl)-3-oxo-isoindolin-5-yl]quinoline-2-carboxamide] | FALSE
O=C1CCC(N2Cc3ccc(NC(=O)c4ccc5cnccc5n4)cc3C2=O)C(=O)N1 (stereo not drawn) [C80393, N-[2-(2,6-dioxo-3-piperidyl)-3-oxo-isoindolin-5-yl]-1,6-naphthyridine-2-carboxamide] | FALSE
O=C1CCC(N2Cc3ccc(NC(=O)C4=C5C=CN=C5N=CC4)cc3C2=O)C(=O)N1 (stereo not drawn) [C80395, N-[2-(2,6-dioxo-3-piperidyl)-3-oxo-isoindolin-5-yl]-5H-pyrrolo [2,3-b]pyridine-4-carboxamide] | TRUE
NC(=O)CNc1ccc2c(c1)C(=O)N(C1CCC(=O)NC1=O)C2 (stereo not drawn) [C84961, 2-[[2-(2,6-dioxo-3-piperidyl)-3-oxo-isoindolin-5-yl]amino]acetamide] | FALSE
O=C1CCC(N2Cc3ccc(NCC(=O)NC4CC4)cc3C2=O)C(=O)N1 (stereo not drawn) [C84963, N-cyclopropyl-2-[[2-(2,6-dioxo-3-piperidyl)-3-oxo-isoindolin-5-yl]amino]acetamide] | FALSE

SMILES | Recruitment Assessment
CN(C)C(=O)CNc1ccc2c(c1)C(=O)N(C1CCC(=O)NC1=O)C2 (stereo not drawn) [C84964, 2-[[2-(2,6-dioxo-3-piperidyl)-3-oxo-isoindolin-5-yl]amino]-N,N-dimethyl-acetamide] | FALSE
O=C(CNc1ccc2c(c1)C(=O)N(C1CCC(=O)NC1=O)C2)NCc1ccccc1 (stereo not drawn) [C84966, N-benzyl-2-[[2-(2,6-dioxo-3-piperidyl)-3-oxo-isoindolin-5-yl]amino]acetaimde] | FALSE
CC(=O)NCC(=O)Nc1ccc2c(c1)C(=O)N(C1CCC(=O)NC1=O)C2 (stereo not drawn) [C84967, 2-acetamido-N-[2-(2,6-dioxo-3-piperidyl)-3-oxo-isoindolin-5-yl]acetamide] | TRUE
O=C1CCC(N2Cc3ccc(N4CCNC4=O)cc3C2=O)C(=O)N1 (stereo not drawn) [C84971, 3-[1-oxo-6-(2-oxoimidazolidin-1-yl)isoindolin-2-yl]piperidine-2,6-dione] | FALSE
O=C1CCC(N2Cc3ccc(NCC(=O)N4CCc5ccccc5C4)cc3C2=O)C(=O)N1 (stereo not drawn) [C95329, 3-[6-[[2-(3,4-dihydro-1H-isoquinolin-2-yl)-2-oxo-ethyl]amino]-1-oxo-isoindolin-2-yl]piperidine-2,6-] | FALSE
O=C1CCC(N2Cc3ccc(NCC(=O)N4Cc5ccccc5C4)cc3C2=O)C(=O)N1 (stereo not drawn) [C95330, 3-[6-[(2-isoindolin-2-yl-2-oxo-ethyl)amino]-1-oxo-isoindolin-2-yl] piperidine-2,6-dione] | FALSE
CN(Cc1cnn(C)c1)C(=O)CNc1ccc2c(c1)C(=O)N(C1CCC(=O)NC1=O)C2 (stereo not drawn) [C95333] | FALSE
O=C1CCC(N2Cc3ccc(NCC(=O)N4CC5COCC5C4)cc3C2=O)C(=O)N1 (stereo not drawn) [C95334, 3-[6-[[2-(1,3,3a,4,6,6a-hexahydrofuro[3,4-c]pyrrol-5-yl)-2-oxo-ethyl]amino]-1-oxo-isoindolin-2-yl]piperidine-2.6-dione] | FALSE
CC1Cc2ccccc2N1C(=O)CNc1ccc2c(c1)C(=O)N(C1CCC(=O)NC1=O)C2 (stereo not drawn) [C95336, 3-[6-[[2-(2-methylindolin-1-yl)-2-oxo-ethyl]amino]-1-oxo-isoindolin-2-yl]piperidine-2,6-dione] | FALSE
CN(CC1CC1)C(=O)CNc1ccc2c(c1)C(=O)N(C1CCC(=O)NC1=O)C2 (stereo not drawn) [C95338, N-(cyclopropylmethyl)-2-[[2-(2,6-dioxo-3-piperidyl)-3-oxo-isoindolin-5-yl]amino]-N-methyl-acetamide] | FALSE
C=CCC1c2ccccc2C(=O)N1C1CCC(=O)NC1=O (stereo not drawn) [C96413, 3-(1-allyl-3-oxo-isoindolin-2-yl)piperidine-2,6-dione] | FALSE
CN(C)c1ccc2c(c1)C(=O)N(C1CCC(=O)NC1=O)C2 (stereo not drawn) [C96622, 3-[6-(dimethylamino)-1-oxo-isoindolin-2-yl]piperidine-2,6-dione] | FALSE
CC(C)(C)OC(=O)CC1c2ccccc2C(=O)N1C1CCC(=O)NC1=O (stereo not drawn) [C98053, t-butyl 2-[2-(2,6-dioxo-3-piperidyl)-3-oxo-isoindolin-1-yl]acetate] | FALSE
O=C1CC=CC(C(=O)NC2CCC(=O)NC2=O)=N1 (stereo not drawn) [C98696, N-(2,6-dioxo-3-piperidyl)-2-oxo-3H-pyridine-6-carboxamide] | FALSE
O=C1CCC(N2Cc3cccc([N+](=O)[O-])c3C2=O)C(=O)N1 (stereo not drawn) [C99884, 3-(7-nitro-1-oxo-isoindolin-2-yl)piperidine-2,6-dione] | FALSE
Cc1nc2cccc(N)c2c(=O)n1C1CCC(=O)NC1=O (stereo not drawn) [CC-122, 3-(5-amino-2-methyl-4-oxo-quinazolin-3-yl)piperidine-2,6-dione, reference compound] | TRUE
O=C1CC[C@H](N2Cc3c(OCc4ccc(CN5CCOCC5)cc4)cccc3C2=O)C(=O)N1 [CC-220, (3S)-3-[4-[[4-(morpholinomethyl)phenyl]methoxy]-1-oxo-isoindolin-2-yl]piperidine-2,6-dione, reference compound] | TRUE
Nc1cccc2c1C(=O)N(C1CCC(=O)NC1=O)C2=O (stereo not drawn) [POM, 4-amino-2-(2,6-dioxo-3-piperidyl)isoindoline-1,3-dione, reference compound] | TRUE
O=C1CCC(N2C(=O)c3ccccc3C2=O)C(=O)N1 (stereo not drawn) [THL, Thalidomide, reference compound] | TRUE

— patent US20230111853A1, “COMPOUNDS MODULATING PROTEIN RECRUITMENT AND/OR DEGRADATION” (Orionis Biosciences, Inc., priority 2019, published 2023)
